EC50, half-life in blood and IC50 data for eight molecules are collected here from patent US20260200927A1, “NON PEPTIDERGIC AGONISTS OF OXYTOCIN RECEPTOR” (UNIVERSITE DE STRASBOURG, priority 2022, published 2026).

pEC50, pIC50: −log10 of the molar value.

In one data set the target is T1, oxytocin receptor (Homo sapiens, UniProt P30559).
T1 construct: expressed in transfected cells; host or cells: CHO cell lines
T1 sequence (P30559 1-389): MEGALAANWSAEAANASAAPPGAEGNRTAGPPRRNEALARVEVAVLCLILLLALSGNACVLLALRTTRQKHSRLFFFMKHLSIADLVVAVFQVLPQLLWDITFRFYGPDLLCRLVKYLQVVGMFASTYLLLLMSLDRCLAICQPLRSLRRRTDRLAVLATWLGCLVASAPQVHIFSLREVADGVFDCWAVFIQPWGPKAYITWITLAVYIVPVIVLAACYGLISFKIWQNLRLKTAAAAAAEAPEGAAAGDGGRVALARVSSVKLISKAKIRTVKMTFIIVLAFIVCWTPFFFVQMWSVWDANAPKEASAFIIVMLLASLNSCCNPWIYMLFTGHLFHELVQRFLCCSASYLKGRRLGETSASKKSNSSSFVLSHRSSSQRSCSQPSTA
The data set can be described thus: IP-One IP1 accumulation assay in CHO cell lines expressing oxytocin receptor (agonism). It counts as cell-based. The following applies: CHO cells expressing oxytocin receptor, n = 3, read-out: OT-R EC50. How it is done: The activation constants (EC50 in nM) were measured in CHO cell lines expressing oxytocin receptor by IP-One IP1 accumulation assay. These values are the mean±SEM of at least three separate experiments performed in triplicate.

The conditions of data set [1]: cited from earlier work.
In another data set the target is V1A-R (Homo sapiens, UniProt P37288). The data set can be described thus: V1A receptor antagonism measured as calcium signal. It is filed as cell-based. The following applies: antagonist, n = 3, read-out: V1A-R (Antago) IC50.
Sequence of V1A-R (P37288 whole entry, species assumed): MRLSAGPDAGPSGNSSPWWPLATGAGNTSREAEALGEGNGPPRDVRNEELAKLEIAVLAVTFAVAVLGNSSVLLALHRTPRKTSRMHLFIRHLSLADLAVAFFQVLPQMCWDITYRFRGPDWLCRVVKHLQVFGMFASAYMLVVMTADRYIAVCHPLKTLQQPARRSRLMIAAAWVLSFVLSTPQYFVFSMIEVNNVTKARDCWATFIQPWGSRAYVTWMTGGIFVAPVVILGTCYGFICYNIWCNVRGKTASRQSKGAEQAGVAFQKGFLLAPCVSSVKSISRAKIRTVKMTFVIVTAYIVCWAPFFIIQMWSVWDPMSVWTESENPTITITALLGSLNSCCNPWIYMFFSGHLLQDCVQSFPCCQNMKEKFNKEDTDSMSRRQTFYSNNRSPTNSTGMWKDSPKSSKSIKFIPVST

As usually defined, the pEC50 is −log10 of the EC50, conventionally taken in molar units. On to `Cc1cc(C(=O)N2Cc3cnn(C)c3Nc3ccccc32)ccc1CNC(=O)N1C[C@H](OCCCO)C[C@H]1C(=S)N(C)C` [Compound 6, (2S,4R)-2-(dimethylcarbamothioyl)-4-(3-hydroxypropoxy)-N-[(2-methyl-4-4-methyl-2,4,5,9-tetraazatricyclo[8.4.0.0,3,7]tetradeca-1(14),3(7),5,10,12-pentaene-9-carbonylphenyl)methyl]pyrrolidine-1-carboxamide], for which the pEC50 on oxytocin receptor is 7.53.
On to `CC[C@H](C)[C@@H]1NC(=O)[C@H](Cc2ccc(O)cc2)NC(=O)[C@@H](N)CSSC[C@@H](C(=O)N2CCC[C@H]2C(=O)N[C@@H](CC(C)C)C(=O)NCC(N)=O)NC(=O)[C@H](CC(N)=O)NC(=O)[C@H](CCC(N)=O)NC1=O` [OT], for which, in data set [1], the half-life in blood entry is “about 3 minute”.
`Cc1cc(C(=O)N2Cc3cnn(C)c3Nc3ccccc32)ccc1CNC(=O)N1C[C@H](OCc2cccc(S(N)(=O)=O)c2)C[C@H]1C(=S)N(C)C` [Compound 13, (2S,4R)-2-(dimethylcarbamothioyl)-N-[(2-methyl-4-4-methyl-2,4,5,9-tetraazatricyclo[8.4.0.0,3,7]tetradeca-1(14),3(7),5,10,12-pentaene-9-carbonylphenyl)methyl]-4-[(3-sulfamoylphenyl)methoxy]pyrrolidine-1-carboxamide]: at oxytocin receptor, the pEC50 was 7.48.
As to `CO[C@@H]1C[C@@H](C(=S)N(C)C)N(C(=O)NCc2ccc(C(=O)N3Cc4cnn(C)c4Nc4ccccc43)cc2C)C1` [Compound 3], at oxytocin receptor, the pEC50 was 7.48.
Regarding `Cc1cc(C(=O)N2Cc3cnn(C)c3Nc3ccccc32)ccc1CNC(=O)N1CC(OCCC2NC(=O)NC2=O)CC1C(=S)N(C)C` [Compound 21, (2S,4R)-2-(dimethylcarbamothioyl)-4-[2-(2,5-dioxoimidazolidin-4-yl)ethoxy]-N-[(2-methyl-4-4-methyl-2,4,5,9-tetraazatricyclo[8.4.0.0,3,7]tetradeca-1(14),3(7),5,10,12-pentaene-9-carbonylphenyl)methyl]pyrrolidine-1-carboxamide], the pEC50 on oxytocin receptor is 7.84.
As to `Cc1cc(C(=O)N2Cc3cnn(C)c3Nc3ccccc32)ccc1CNC(=O)N1C[C@H](OCc2nnn[nH]2)C[C@H]1C(=S)N(C)C` [Compound 19, (2S,4R)-2-(dimethylcarbamothioyl)-N-[(2-methyl-4-4-methyl-2,4,5,9-tetraazatricyclo[8.4.0.0,3,7]tetradeca-1(14),3(7),5,10,12-pentaene-9-carbonylphenyl)methyl]-4-[(1H-1,2,3,4-tetrazol-5-yl)methoxy]pyrrolidine-1-carboxamide], at oxytocin receptor, the negative-log EC50 (pEC50) was 7.76.
By pIC50 is commonly meant the negative decadic logarithm of the IC50, by convention in mol/L. `Cc1cc(C(=O)N2Cc3cnn(C)c3Nc3ccccc32)ccc1CNC(=O)N1C[C@H](F)C[C@H]1C(=S)N(C)C` [Compound 1]: the pIC50 at V1A-R is 6.60.
`Cc1cc(C(=O)N2Cc3cnn(C)c3Nc3ccccc32)ccc1CNC(=O)N1C[C@H](OCCCCO)C[C@H]1C(=S)N(C)C` [Compound 7, (2S,4R)-2-(dimethylcarbamothioyl)-4-(4-hydroxybutoxy)-N-[(2-methyl-4-4-methyl-2,4,5,9-tetraazatricyclo[8.4.0.0,3,7]tetradeca-1(14),3(7),5,10,12-pentaene-9-carbonylphenyl)methyl]pyrrolidine-1-carboxamide]: the pEC50 on oxytocin receptor is 7.93.
